Measured values published in patent US5783247A, “Flavoring composition containing oxidized triglyceride fats, fatty acids, of fatty acid derivatives” (Van Den Berg Foods Co., Division of Conopco, Inc., priority 1993, dated 1998).

Test: Induction period of fat with anti-oxidant
Type: physicochemical
Settings: calculated on the fat; induction period established at 100° C.
Text: Preferably the anti-oxidant is selected from the group consisting of natural and nature-identical anti-oxidants, citric acid, tartaric acid and precursors thereof. The most preferred anti-oxidant is α-tocopherol and mixtures of tocopherols, which are commercially available. Alpha-tocopherol is commonly present as a native anti-oxidant in vegetable fat. About 0.1 wt. % (calculated on the fat) of alpha-tocopherol is sufficient for increasing the induction period of the fat by a factor of 1.5 (effective concentration). The induction period is established at 100° C., using the method described in J. Am. Oil. Chem. Soc. Vol. 63, 6 (1986), 192-195.

effective concentration (increasing the induction period of the fat by a factor of 1.5): About 0.1 wt. %
Structure (SMILES): Cc1c(C)c2c(c(C)c1O)CCC(C)(CCCC(C)CCCC(C)CCCC(C)C)O2 (stereo not drawn) [alpha-tocopherol]
